Test results as given in US20150071967A1, “Tolerisation-Inducing Composition” (University of Bristol, priority 2012, published 2015).

Columns and labels:
[1] = tested on: β-catenin; details: cited from earlier work
[2] = tested on: Th1 cells; test: IL-10 mRNA by qPCR in Th1 CD4+ cells; assay type: cell-based, mouse; details: IL-10 relative to HPRT1
Experimental: F. Splenocytes from a naive Tg4 mouse were cultured in the presence of peptide MBP Ac1-9 (10 μg/ml) and IL-12 with IL-2 added on day 3 of culture to polarise CD4+ cells towards a Th1 phenotype. On day 7 of culture, Th1 cells were restimulated with fresh irradiated APCs from a B10_PL mouse in the presence of DMSO (1:1000; Control), CHIR99021 (2 μM), SB216763 (5 μM) or SB627772 (10 µM) as well as peptide MBP Ac1-9 (10 μg/ml). IL-2 was added on day 3 of culture. On day 7 of restimulation live CD4^+ cells were selected and stimulated with anti CD3/CD28 antibodies for 16 hrs. RNA was extracted and IL-10 mRNA quantified by qPCR. IL-10 quantities are shown relative to HPRT1 control.
(§1) In a separate experiment, CD4+ cells from Tg4 mice which express TCR specific for the peptide Ac[1-9] of MBP were polarised to a Th1 phenotype and then cultured in the presence of GSK3 inhibitors. Three structurally distinct inhibitors, CHIR99021, SB216763 and SB627772 were used to minimise effects of off-target inhibition.

[3] = tested on: Th1 cells; test: IL-10 protein in Th1-polarised CD4+ cells restimulated with GSK-3 inhibitors (ICCS, bead immunoassay); assay type: cell-based, mouse; details: for IL-10 protein: Th1 CD4+ cells restimulated with APCs and peptide or with anti-CD3/anti-CD28 coated beads; for Intracellular IL-10 levels: Th1 cells restimulated with anti CD3/anti CD28 Dynabeads, 2 μM CHIR99021 or 3 μM SB216763, ICCS day 7
Experimental: A. Splenocytes from a naive Tg4 mouse were cultured in the presence of peptide MBP Ac1-9 (10 μg/ml) and IL-12 with IL-2 added on day 3 of culture to polarise CD4+ cells towards a Th1 phenotype. On day 7 of culture, Th1 cells were restimulated with fresh irradiated APCs from a B10_PL mouse in the presence of DMSO (1:1000; Control), CHIR99021 (2 μM), SB216763 (5 μM) or SB627772 (10 μM) as well as peptide MBP Ac1-9 (10 μg/ml). IL-2 was added on day 3 of culture and intracellular cytokine staining for IFNγ and IL-10 carried out on day 7 of restimulation after PMA and lonomycin stimulation. Data are plots gated on live CD4^+ cells and are representative of 5 independent experiments.
C. Splenocytes from a naive Tg4 mouse were cultured in the presence of peptide MBP Ac1-9 (10 μg/ml) and IL-12 with IL-2 added on day 3 of culture to polarise CD4+ cells towards a Th1 phenotype. On day 7 of culture, Th1 CD4+ cells were isolated and restimulated with anti-CD3/anti-CD28 coated beads in the presence of IL-2 and DMSO (1:1000; Control), CHIR99021 (2 μM), SB216763 (5 μM) or SB627772 (10 μM). Intracellular cytokine staining for IFNγ and IL-10 was carried out on day 7 of restimulation after PMA and lonomycin stimulation. Data are plots gated on live CD4^+ cells and are representative of 4 independent experiments.
E. Tissue culture supernatants were taken on day 3 of restimulation and analysed for IL-10 by fluorescent bead immunoassay. Data are mean+/−SEM and are representative of 3 independent experiments.
Splenocytes from a naive Tg4 mouse were cultured in the presence of peptide MBP Ac1-9 (10 μg/ml) and IL12 with IL2 added on day 3 to polarise cells to a Th1 phenotype. On day 7, cells were restimulated with anti CD3/anti CD28 Dynabeads and 2 μM CHIR99021, 3 μM SB216763 or 0.02% DMSO (vehicle control). Cells were analysed by ICCS on Day 7 after stimulation. Intracellular IL-10 levels were increased following treatment with either GSK-3 inhibitor (CHIR99021 or SB216763).
as §1

[4] = tested on: naive CD4+ T cells; test: IL-10 in naive CD4+ T cells cultured with GSK-3 inhibitors (ICCS, bead immunoassay); assay type: cell-based, mouse; details: for IL-10 production: naive CD4+CD62L+ T-cells from Tg4 spleens, cultured in the presence of GSK3 inhibitors; for Intracellular IL-10 levels: naive Tg4 CD4+ cells, anti CD3/anti CD28 Dynabeads, 2 μM CHIR99021 or 3 μM SB216763, ICCS day 7
Experimental: A. CD4^+/CD62L^+ T cells were isolated from Tg4 splenocytes and cultured with anti-CD3/anti-CD28 coated beads in the presence of IL-2 and DMSO (1:1000; Control), CHIR99021 (2 μM), SB216763 (5 μM) or SB627772 (10 μM). Intracellular cytokine staining for […] and IL-10 was carried out on day 7 of restimulation after PMA and lonomycin stimulation. Data are plots gated on live CD4^+ cells and are representative of 3 independent experiments.
B. Tissue culture supernatants were taken on day 3 of restimulation and analysed for IL-10 by fluorescent bead immunoassay. Data are mean+/−SEM of 3 independent experiments.
CD4+ cells purified from a naive Tg4 spleen were cultured in the presence of 2 μM CHIR99021, 3 μM SB216763 or 0.02% DMSO (vehicle control) with anti CD3/anti CD28 Dynabeads. Cells were analysed by ICCS on Day 7 after stimulation.
as §1

[5] = tested on: β-catenin; test: beta-catenin Western blot in Th1 CD4+ cells; assay type: cell-based, mouse; details: for β-catenin accumulation (Western blot): CD4+ cells, 2 μM CHIR99021, 5 μM SB216763, 10 μM SB627772; for β-catenin levels (Western blot): Th1 cells restimulated with APCs and peptide, indicated concentrations, day 7
Experimental: G. Splenocytes from a naive Tg4 mouse were cultured in the presence of peptide MBP Ac1-9 (10 μg/ml) and IL-12 with IL-2 added on day 3 to polarise cells to a Th1 phenotype. On day 7 cells were restimulated with fresh irradiated APCs from a B10_PL mouse, peptide Ac1-9 of MBP (10 μg/ml) and the indicated concentrations of CHIR99021, SB216763 or SB627772. On day 7 of restimulation, CD4^+ cells were lysed in RIPA buffer, subjected to Western blotting and probed with beta catenin antibody. The membrane was stripped and reprobed for GAPDH as a loading control.
Splenocytes from a naive Tg4 mouse were cultured in the presence of peptide MBP Ac1-9 (10 μg/ml) and IL12 with IL2 added on day 3 to polarise cells to a Th1 phenotype. On day 7 cells were restimulated with fresh irradiated APCs, peptide Ac1-9 of MBP (10 μg/ml) and the indicated concentrations of SB216763 or CHIR99021. On day 7 of restimulation, cells were lysed in RIPA buffer, subjected to Western blotting and probed with beta catenin antibody. The membrane was stripped and reprobed for GAPDH as a loading control. GSK-3 consititutively phosphorylates the β-catenin protein, leading to its degradation.

[6] = tested on: APC / Th1 CD4+ cells; test: IL-10 with APCs from WT or IL-10 knockout mice (ICCS, ELISA); assay type: cell-based, mouse; details: 2 μM CHIR99021, APCs from WT or IL10 knockout mice, ICCS and day 3 ELISA
Experimental: A. Splenocytes from a naive Tg4 mouse were cultured in the presence of peptide MBP Ac1-9 (10 μg/ml) and IL-12 with IL-2 added on day 3 of culture to polarise CD4+ cells towards a Th1 phenotype. On day 7 of culture, Th1 cells were restimulated with fresh irradiated APCs from either a B10_PL or B10_PL IL10^−/− mouse in the presence of DMSO (1:1000; Control) or CHIR99021 (2 μM). IL-2 was added on day 3 of culture and intracellular cytokine staining for […] and IL-10 carried out on day 7 of restimulation after PMA and lonomycin stimulation. Data are plots gated on live CD4^+ cells and are representative of 3 independent experiments. B. Tissue culture supernatants were taken on day 3 of restimulation and analysed for IL-10 by ELISA. Data are mean+/−SEM and are representative of 3 independent experiments. Splenocytes from a naive Tg4 mouse were cultured in the presence of either: (a) peptide MBP Ac1-9 (10 μg/ml) and IL12 with IL2 added on day 3 to polarise cells to a Th1 phenotype; or (b) IL4 and anti IFNγ with IL2 added on day 3 to polarise cells to a Th2 phenotype. On day 7 CD4+ cells were restimulated with fresh irradiated APCs from either WT or IL10 knockout mice, 2 μM CHIR99021 or 0.02% DMSO (vehicle control) and peptide […] of MBP (10 μg/ml). Supernatants were taken in triplicate on day 3 and analysed for IL-10 by ELISA (FIG. 3 (E)). […]

Row | SMILES | Level of β-catenin [1] | IL-10 mRNA (qPCR) [2] | IL-10 protein [3] | Intracellular IL-10 levels [3] | IL-10 production [4] | Intracellular IL-10 levels [4] | β-catenin accumulation (Western blot) [5] | β-catenin levels (Western blot) [5] | IL-10 in / produced by the APC [6]
1 | O=C1NC(=O)C(c2ccccc2[N+](=O)[O-])=C1Nc1ccc(O)c(Cl)c1 [SB415286] | elevate the level of 13-catenin |  |  |  |  |  |  |  | 
2 | Cn1cc(C2=C(c3ccc(Cl)cc3Cl)C(=O)NC2=O)c2ccccc21 [SB216763] |  | upregulation | significantly increased | increased | did not show any change | not significantly affected | no accumulation of β-catenin | does not appear to cause a significant effect on β-catenin levels | 
3 | Cc1c[nH]c(-c2cnc(NCCNc3ccc(C#N)cn3)nc2-c2ccc(Cl)cc2Cl)n1 [CHIR99021] |  | upregulation | significantly increased | increased | did not show any change | not significantly affected | no accumulation of β-catenin | degradation of β-catenin appears to be inhibited, leading to build up of the β-catenin protein | Neither the intracellular level of IL-10 in the APC nor the production of IL-10 by the APC was enhanced
